# Measured values reported in patent US7947739B2, “Tranexamic acid formulations” (Ferring B.V., priority 2004, dated 2011).
# Where two headings read alike, the source gives them in different places.
# What was measured:
# women with menorrhagia [1] = assay: Example 8: 3-cycle placebo-controlled study, menstrual blood loss (MBL) by alkaline hematin test, also stratified by fibroids; assay type: in vivo, human; conditions: 3 cycles
# [2] = Example 6: single dose followed by multiple doses study, noncompartmental plasma pharmacokinetics, linearity, steady state; assay type: in vivo, human; conditions: 1.3 g every 8 hours
# Procedure: After an overnight fast, subjects received a single oral dose of tranexamic acid (1.3 g) on Day 1. Blood samples were taken before dosing and up to 36 hours post-dose. Subjects received another single oral dose of tranexamic acid (1.3 g) on the evening of Day 2, and 3 times a day (every 8 hours) starting on the morning of Day 3 until the last dose on the morning of Day 7. Blood samples were taken before the 6th, 9th, 12th and 15th dose (the last dose) for the determination of Cmin, and up to 8 hours after the last dose, for the determination of drug concentration at steady-state. Subjects were housed from at least 10 hours before the 1st dose on Day 1 until after the 8-hour blood draw following the 15th dose (on Day 7). […]
# Calculations for plasma tranexamic acid were calculated by noncompartmental methods using the following pharmacokinetic parameters in Tables 15 and 16:
# Descriptive statistics including arithmetic means, standard deviations and coefficients of variation were calculated on the individual concentration and pharmacokinetic data. Additionally, geometric means were calculated for the parameters AUC0-t, AUCinf, and Cmax for Day 1 and AUCτ, Cmax and Cmin for Day 7. […]
# The ratio of LSM was calculated using the exponentiation of the Day LSM from the analysis on the In-transformed response. The ratio was expressed as a percentage relative to AUCinf (Day 1). […]
# [3] = Example 6: compartmental pharmacokinetic analysis; assay type: in vivo; conditions: female, human, plasma, oral, 1.3 g; 295 mL/min×0.449; read-out: systemic clearance (CL)
# Procedure: Compartmental analysis was performed on tranexamic acid data following single and multiple oral administrations of the modified release (MR) tablet formulation. Multiple compartmental models were constructed and their ability to fit plasma concentrations of tranexamic acid were evaluated using a standard two-stage (STS) approach with ADAPT-II (maximum likelihood analysis). The discrimination process was performed by computing the Akaike Information Criterion Test (AIC), the minimum value of the objective function (OBJ) and by looking at pertinent graphical representations of goodness of fit (e.g. fitted and observed concentrations versus time).
# The final analysis was performed using an iterative two-stage approach with the IT2S® software. This software uses a population methodology which allows one to provide robust PK parameter estimates on an individual subject and population basis. All relevant pharmacokinetic parameters were calculated and reported. Concentrations were modeled using a weighting procedure of Wj=1/Sj^2 where the variance σj^2 was calculated for each observation using the equation σj^2=(a+b*Yj)^2 where a and b are the intercept and slope of each variance model. […] The analysis included the quantitative estimation of population PK parameters and interindividual variability of tranexamic acid in plasma.
# [4] = cited from earlier work; for dose excreted unchanged in the urine: IV 1 g
# women with menorrhagia [5] = assay: Example 9: 6-cycle placebo-controlled study, menstrual blood loss (MBL) by alkaline hematin test; assay type: in vivo, human; conditions: 3.9 g/day
# heavy menstrual bleeding = conditions: cited from earlier work
# [6] = Published pharmacokinetics of tranexamic acid (Pilbrant et al.; Cyklokapron NDA); assay type: in vivo; conditions: human, serum, single 1.3 g oral dose, fasting, approx. 65% of 2 g dose published data
# Procedure: By comparison, the in vivo absorption profile observed with the European immediate-release formulation is slow and very gradual over 3 hours. Specifically, tranexamic acid serum concentrations are 9, 41, 73, 88 percent (with food), and 22, 63, 85, and 98 percent (fasting) of maximal absorption at 0.5, 1, 1.5 and 2 hours after a 2 g oral dose, respectively.
# Tranexamic acid is minimally bound (approximately 3%) to plasma proteins (mainly plasminogen) at “typical” therapeutic plasma concentrations of approximately 5-15 mg/L. The main route of elimination of tranexamic acid is renal glomerular filtration. After oral administration of tranexamic acid (250 or 500 mg) to healthy adults, between 40-70% of the administered dose is excreted unchanged in the urine within 24 hours. After IV administration (1 g) 30% of the dose is excreted unchanged in the urine within one hour, 45-55% within 2-3 hours and 90% within 24 hours.
# For this reason, the concentration-time profile of tranexamic acid was estimated by simulating the data over 36 hours, after oral administration of a 1.3 g dose under fasting conditions, using NONMEM. Based on the simulation results, it would be appropriate to collect blood samples until 36 hours in order to characterize the AUC, Cmax, tmax, t½ and F.
# women with menorrhagia [7] = assay: Example 9: 6-cycle study, Menorrhagia Instrument measures, responders, sanitary products, large stains; assay type: in vivo, human
# women with menorrhagia [8] = assay: Example 8: 3-cycle study, Menorrhagia Instrument measures (MIQ Q1-Q6), responders, sanitary products, large stains; assay type: in vivo, human
# [9] = 3.9 g/day compared with placebo
compound,measurement,setting,value
"NC[C@H]1CC[C@H](C(=O)O)CC1 [tranexamic acid, trans-4-(aminomethyl)cyclohexanecarboxylic acid]",mean reduction in MBL from baseline,women with menorrhagia [1]; 1.95 g/day,46.5 mL
same,percent MBL reduction compared with baseline,women with menorrhagia [1]; 1.95 g/day,26.1%
same,mean reduction in MBL from baseline,women with menorrhagia [1]; 3.9 g/day,65.3 mL
same,percent MBL reduction compared with baseline,women with menorrhagia [1]; 3.9 g/day,38.6%
same,difference between the LSM of predose Day 6 and 7,[2],less than 2%
same,"largest difference in predose plasma concentrations, LSM of predose Day 5 compared to Day 6 and 7",[2],less than 10%
same,clearance,[3],123 mL/min
same,therapeutic antifibrinolytic range (therapeutic window),[4]; Cyklokapron NDA 19-280,5 to 15 µg/mL
same,dose excreted unchanged in the urine,[4]; within 2-3 hours,45-55%
same,dose excreted unchanged in the urine,[4]; within 24 hours,90%
same,dose excreted unchanged in the urine,[4]; within one hour,30%
same,urinary recovery,"[4]; Pilbrant, et al.",exceeded 95 % of the dose
same,gamma elimination half-life,[4]; after IV administration,approximately 7 hours
same,bound to plasma proteins,[4]; at therapeutic plasma concentrations of approximately 5-15 mg/L,approximately 3%
same,beta elimination half-life,[4]; in vivo,2 h
same,excreted unchanged drug in the urine,[4]; in vivo,more than 95%
same,typical therapeutic plasma concentrations,[4]; in vivo,5 to 15 mg/L
same,administered dose excreted unchanged in the urine,"[4]; oral 250 or 500 mg, healthy adults, within 24 hours",40-70%
same,mean reduction in MBL from baseline,"women with menorrhagia [5]; […], 6-cycle study",69.6 mL
same,percent MBL reduction compared with baseline,"women with menorrhagia [5]; […], 6-cycle study",40.4%
same,regression slope of response over the six menstrual cycles,women with menorrhagia [5]; p=0.615,−0.90 mL/cycle
same,women satisfied with the treatment,"heavy menstrual bleeding; Winkler open label uncontrolled usage study, 849 patients",80%
same,reduction of heavy menstrual bleeding,heavy menstrual bleeding; research from European countries,40-50%
same,AUC(0-t),[6]; read-out: expected mean AUC0-6,~40000 ng·h/mL
same,Cmax,[6]; read-out: expected mean Cmax,~10000 ng/mL
same,LWH (MI measure #2),women with menorrhagia [7]; [9],significantly reduced
same,subjects' assessments of MBL (MI measure #1),women with menorrhagia [7]; [9],significantly reduced
same,"mean LPA score, change from baseline",women with menorrhagia [7]; 6-cycle study,significant treatment-related reductions
same,"mean LSLA score, change from baseline",women with menorrhagia [7]; 6-cycle study,significant treatment-related reductions
same,"mean LPA score, change from baseline",women with menorrhagia [8]; 3-cycle study,Significant treatment-related reductions
same,"mean LSLA score, change from baseline",women with menorrhagia [8]; 3-cycle study,Significant treatment-related reductions
same,LWH (MI measure 2),women with menorrhagia [8]; [9],significantly reduced
same,subjects' assessments of MBL (MI item 1),women with menorrhagia [8]; [9],significantly reduced
same,proportion of responders,"women with menorrhagia [8]; 3.9 g/day, first menstrual cycle, reduction in MBL and meaningful improvement (MI 6c)",71.0%
